Source: patent publication US20260337208A1, “HETEROCYCLIC DERIVATIVES AS JANUS KINASE INHIBITORS” (CHIESI FARMACEUTICI S.P.A., priority 2022, published 2026)

Columns and labels:
JAK1 = JAK1 (Homo sapiens, UniProt P23458); assay: Biochemical potency on JAK1, TR-FRET (LANCE Ultra kinase assay); conditions: ATP corresponding to Km; cell-free; read-out: JAK1 inhibitory activity (pIC50) (converted)
Summary of the method: (§1)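 ULight-JAK-1 (Tyr1023) peptide phosphorylation at Km ATP, 1.5 h r.t.; substrate solution held peptide 30/50/20/10 nM and ATP 20/0.7/0.2/12 μM, enzyme solution 0.15/0.083/0.025/0.144 ng/μL (JAK1/JAK2/JAK3/TYK2). EDTA stop, Eu-PT66 antibody TR-FRET read at 665 nm; 11-point 5-fold dilutions from 20 μM; IC50 by variable-slope fit.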

JAK2 = JAK2 (Homo sapiens, UniProt O60674); assay: Biochemical potency on JAK2, TR-FRET (LANCE Ultra kinase assay); conditions: ATP corresponding to Km; cell-free; read-out: JAK2 inhibitory activity (pIC50) (converted)
JAK2, sequence (O60674 whole entry): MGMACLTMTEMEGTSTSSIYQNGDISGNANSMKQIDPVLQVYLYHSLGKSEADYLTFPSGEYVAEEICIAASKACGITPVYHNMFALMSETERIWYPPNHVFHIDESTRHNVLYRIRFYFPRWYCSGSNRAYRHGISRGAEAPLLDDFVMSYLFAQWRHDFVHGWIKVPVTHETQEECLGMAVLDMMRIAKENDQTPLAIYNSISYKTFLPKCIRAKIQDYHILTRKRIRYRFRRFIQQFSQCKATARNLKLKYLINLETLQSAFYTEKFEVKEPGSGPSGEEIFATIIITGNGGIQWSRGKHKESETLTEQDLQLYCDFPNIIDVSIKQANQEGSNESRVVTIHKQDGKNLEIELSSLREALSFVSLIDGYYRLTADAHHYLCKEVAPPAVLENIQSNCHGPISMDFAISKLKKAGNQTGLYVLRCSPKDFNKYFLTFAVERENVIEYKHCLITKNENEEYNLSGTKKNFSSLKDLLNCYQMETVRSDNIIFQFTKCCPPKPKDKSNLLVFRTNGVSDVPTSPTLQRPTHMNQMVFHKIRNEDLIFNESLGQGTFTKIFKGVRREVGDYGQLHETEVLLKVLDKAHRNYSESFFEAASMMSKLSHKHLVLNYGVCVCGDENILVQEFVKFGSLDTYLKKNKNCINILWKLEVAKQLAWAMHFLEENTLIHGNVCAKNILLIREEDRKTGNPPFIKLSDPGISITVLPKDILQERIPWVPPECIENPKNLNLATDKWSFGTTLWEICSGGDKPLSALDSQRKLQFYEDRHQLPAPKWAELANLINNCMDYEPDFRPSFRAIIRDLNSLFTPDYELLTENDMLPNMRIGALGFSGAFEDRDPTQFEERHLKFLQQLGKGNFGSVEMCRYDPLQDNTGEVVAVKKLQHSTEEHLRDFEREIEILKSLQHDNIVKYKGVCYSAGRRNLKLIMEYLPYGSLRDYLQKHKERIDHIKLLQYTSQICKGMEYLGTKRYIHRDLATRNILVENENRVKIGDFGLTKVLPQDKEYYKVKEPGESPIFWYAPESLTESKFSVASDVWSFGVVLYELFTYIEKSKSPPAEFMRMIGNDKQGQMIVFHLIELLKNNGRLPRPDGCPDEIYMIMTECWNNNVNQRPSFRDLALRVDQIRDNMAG
Summary of the method: as §1

JAK3 = biological target: T1, JAK3 (Homo sapiens, UniProt P52333); assay: Biochemical potency on JAK3, TR-FRET (LANCE Ultra kinase assay); conditions: ATP corresponding to Km; cell-free; read-out: JAK3 inhibitory activity (pIC50) (converted)
T1 sequence (P52333 1-1124): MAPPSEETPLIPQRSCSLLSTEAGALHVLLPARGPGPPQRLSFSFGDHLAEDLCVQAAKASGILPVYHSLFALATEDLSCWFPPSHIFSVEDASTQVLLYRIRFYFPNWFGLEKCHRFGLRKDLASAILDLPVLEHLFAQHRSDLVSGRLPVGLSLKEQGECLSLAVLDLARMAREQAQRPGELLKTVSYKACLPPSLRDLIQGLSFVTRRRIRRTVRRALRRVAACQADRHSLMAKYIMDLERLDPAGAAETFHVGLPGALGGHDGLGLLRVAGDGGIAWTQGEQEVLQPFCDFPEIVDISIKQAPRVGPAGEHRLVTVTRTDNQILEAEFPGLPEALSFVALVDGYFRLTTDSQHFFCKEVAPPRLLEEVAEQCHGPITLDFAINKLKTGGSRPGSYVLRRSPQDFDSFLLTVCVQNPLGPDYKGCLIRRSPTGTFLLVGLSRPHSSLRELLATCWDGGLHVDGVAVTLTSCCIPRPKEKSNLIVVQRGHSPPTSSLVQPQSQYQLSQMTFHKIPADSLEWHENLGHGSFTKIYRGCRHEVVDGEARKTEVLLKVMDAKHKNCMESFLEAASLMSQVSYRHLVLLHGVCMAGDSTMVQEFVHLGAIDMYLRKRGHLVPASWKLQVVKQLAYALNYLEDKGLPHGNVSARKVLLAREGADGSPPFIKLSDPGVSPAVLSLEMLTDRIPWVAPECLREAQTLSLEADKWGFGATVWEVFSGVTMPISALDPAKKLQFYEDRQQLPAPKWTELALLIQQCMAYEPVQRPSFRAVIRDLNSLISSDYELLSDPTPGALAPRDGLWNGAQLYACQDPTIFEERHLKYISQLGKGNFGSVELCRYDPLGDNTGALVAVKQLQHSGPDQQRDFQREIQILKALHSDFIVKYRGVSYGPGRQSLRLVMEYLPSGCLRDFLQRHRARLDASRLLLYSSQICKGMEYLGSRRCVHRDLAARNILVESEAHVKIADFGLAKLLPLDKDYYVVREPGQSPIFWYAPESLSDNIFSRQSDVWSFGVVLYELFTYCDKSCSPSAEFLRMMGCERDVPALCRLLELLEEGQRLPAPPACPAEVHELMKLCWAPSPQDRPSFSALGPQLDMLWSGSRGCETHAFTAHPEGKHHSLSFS
Summary of the method: as §1

TYK2 = TYK2 (Homo sapiens, UniProt P29597); assay: Biochemical potency on Tyk2, TR-FRET (LANCE Ultra kinase assay); conditions: ATP corresponding to Km; cell-free; read-out: TYK2 inhibitory activity (pIC50) (converted)
TYK2, sequence (P29597 whole entry): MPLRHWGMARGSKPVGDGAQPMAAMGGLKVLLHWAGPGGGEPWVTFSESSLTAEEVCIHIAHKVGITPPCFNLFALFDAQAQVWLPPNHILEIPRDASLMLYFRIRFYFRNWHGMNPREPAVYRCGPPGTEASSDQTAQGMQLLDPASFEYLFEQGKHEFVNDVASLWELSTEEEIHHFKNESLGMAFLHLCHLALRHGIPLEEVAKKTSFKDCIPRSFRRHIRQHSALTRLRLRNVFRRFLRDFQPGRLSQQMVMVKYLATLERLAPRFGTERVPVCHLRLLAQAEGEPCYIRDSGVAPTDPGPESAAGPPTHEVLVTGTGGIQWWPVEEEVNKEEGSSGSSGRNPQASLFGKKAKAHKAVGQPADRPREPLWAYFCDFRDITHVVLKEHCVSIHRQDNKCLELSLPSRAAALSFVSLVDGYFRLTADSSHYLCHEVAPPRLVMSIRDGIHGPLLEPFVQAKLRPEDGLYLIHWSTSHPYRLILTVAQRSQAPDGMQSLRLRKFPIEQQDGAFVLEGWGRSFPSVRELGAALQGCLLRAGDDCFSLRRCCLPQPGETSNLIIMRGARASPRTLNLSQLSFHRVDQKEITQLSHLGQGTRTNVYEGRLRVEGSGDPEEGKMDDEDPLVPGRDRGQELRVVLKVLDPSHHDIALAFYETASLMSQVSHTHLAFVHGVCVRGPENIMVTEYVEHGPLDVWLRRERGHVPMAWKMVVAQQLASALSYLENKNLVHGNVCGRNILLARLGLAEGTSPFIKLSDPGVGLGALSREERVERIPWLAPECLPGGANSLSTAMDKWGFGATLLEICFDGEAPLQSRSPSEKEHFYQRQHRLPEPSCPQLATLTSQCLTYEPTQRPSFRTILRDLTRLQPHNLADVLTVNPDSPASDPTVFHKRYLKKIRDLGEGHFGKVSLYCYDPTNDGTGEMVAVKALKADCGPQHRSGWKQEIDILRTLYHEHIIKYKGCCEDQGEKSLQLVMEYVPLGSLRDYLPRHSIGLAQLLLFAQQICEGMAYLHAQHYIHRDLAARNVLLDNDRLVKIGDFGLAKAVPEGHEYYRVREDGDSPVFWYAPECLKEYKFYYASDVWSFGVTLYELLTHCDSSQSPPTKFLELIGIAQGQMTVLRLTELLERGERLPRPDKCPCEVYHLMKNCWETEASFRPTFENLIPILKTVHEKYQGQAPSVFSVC
Summary of the method: as §1

[1] = system: pSTAT6 in BEAS-2B human cell line; assay: Inhibition of IL-13 induced pSTAT6 in BEAS; format: cell-based; conditions: for IC50: Homo sapiens, BEAS-2B, 0.5 h, IL-13 trigger, 30 min, parent compound; for Fold difference parent vs predicted acid metabolite: ratio=IC50 predicted acid metabolite/IC50 ester
Summary of the method: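 BEAS-2B cells grown 48 h, pre-treated 30 min with compound, then stimulated 30 min with IL-13. Lysate pSTAT6 (Tyr641) measured by sandwich ELISA. Eleven 5-fold dilutions from 10 μM, in duplicate, fitted to IC50.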

JAK1, sequence (P23458 whole entry): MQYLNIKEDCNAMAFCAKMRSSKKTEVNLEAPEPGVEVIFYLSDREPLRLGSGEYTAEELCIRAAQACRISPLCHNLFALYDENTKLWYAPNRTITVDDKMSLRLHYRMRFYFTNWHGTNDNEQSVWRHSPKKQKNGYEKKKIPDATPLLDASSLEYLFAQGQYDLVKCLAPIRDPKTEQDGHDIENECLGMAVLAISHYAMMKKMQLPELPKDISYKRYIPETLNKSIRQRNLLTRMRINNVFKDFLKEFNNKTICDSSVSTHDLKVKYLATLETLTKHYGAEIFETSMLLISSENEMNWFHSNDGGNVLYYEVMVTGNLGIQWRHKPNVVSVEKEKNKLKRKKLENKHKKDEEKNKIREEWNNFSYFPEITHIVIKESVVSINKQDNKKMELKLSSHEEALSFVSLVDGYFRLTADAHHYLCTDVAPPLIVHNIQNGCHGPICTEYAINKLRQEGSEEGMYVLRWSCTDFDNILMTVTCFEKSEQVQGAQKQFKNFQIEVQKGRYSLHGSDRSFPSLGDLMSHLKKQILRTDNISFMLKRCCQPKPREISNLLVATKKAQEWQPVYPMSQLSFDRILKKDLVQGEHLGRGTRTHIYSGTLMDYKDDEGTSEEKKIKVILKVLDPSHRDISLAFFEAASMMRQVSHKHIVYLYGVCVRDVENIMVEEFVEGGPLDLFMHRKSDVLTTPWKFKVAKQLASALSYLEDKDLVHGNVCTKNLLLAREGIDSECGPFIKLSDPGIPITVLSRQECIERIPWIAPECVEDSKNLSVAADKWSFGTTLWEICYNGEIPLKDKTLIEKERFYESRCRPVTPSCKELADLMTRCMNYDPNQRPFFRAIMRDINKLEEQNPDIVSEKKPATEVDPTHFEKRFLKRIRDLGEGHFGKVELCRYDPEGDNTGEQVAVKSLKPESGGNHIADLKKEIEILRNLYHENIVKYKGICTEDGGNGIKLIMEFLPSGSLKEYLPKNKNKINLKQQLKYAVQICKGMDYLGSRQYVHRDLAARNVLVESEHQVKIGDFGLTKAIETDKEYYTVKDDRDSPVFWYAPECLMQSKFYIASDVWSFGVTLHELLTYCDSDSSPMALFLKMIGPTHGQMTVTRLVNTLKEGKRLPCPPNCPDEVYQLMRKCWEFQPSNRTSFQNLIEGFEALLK

Row | SMILES | IC50 (JAK1) | IC50 (JAK2) | IC50 (JAK3) | IC50 (TYK2) | IC50 [1] | Fold difference parent vs predicted acid metabolite [1]
1 | COc1cc2c(cc1-n1nc(C(=O)NCCN3CC[C@@H](C(=O)OCC(C)(C)C#N)C3)c3cnc(-c4cnn5cccnc45)cc31)OCCN2 [Example 49, 2-cyano-2-methylpropyl (R)-1-(2-(1-(6-methoxy-3,4-dihydro-2H-benzo[b][1,4]oxazin-7-yl)-6-(pyrazolo[1,5-a]pyrimidin-3-yl)-1H-pyrazolo[4,3-c]pyridine-3-carboxamido)ethyl)pyrrolidine-3-carboxylate] | ≤ 5.01 nM | ≤ 5.01 nM | ≤ 5.01 nM | 5.01 to 50.1 nM | ≤ 5.01 nM | kkk (200>ratio≥100)
2 | COc1cc2c(cc1-n1nc(C(=O)NCCN3CCC(C(=O)OCCCC#N)CC3)c3cnc(-c4cnn5cccnc45)cc31)OCCN2 [Example 54, 3-cyanopropyl 1-(2-(1-(6-methoxy-3,4-dihydro-2H-benzo[b][1,4]oxazin-7-yl)-6-(pyrazolo[1,5-a]pyrimidin-3-yl)-1H-pyrazolo[4,3-c]pyridine-3-carboxamido)ethyl)piperidine-4-carboxylate] | ≤ 5.01 nM | ≤ 5.01 nM | ≤ 5.01 nM | 5.01 to 50.1 nM | ≤ 5.01 nM | kkkk (ratio≥200)
3 | CCOC(=O)CC1CCN(CCNC(=O)c2nn(-c3cc4c(cc3OC)NCCO4)c3cc(-c4cnn5cccnc45)ncc23)CC1 [Example 35, ethyl 2-(1-(2-(1-(6-methoxy-3,4-dihydro-2H-benzo[b][1,4]oxazin-7-yl)-6-(pyrazolo[1,5-a]pyrimidin-3-yl)-1H-pyrazolo[4,3-c]pyridine-3-carboxamido)ethyl)piperidin-4-yl)acetate] | ≤ 5.01 nM | ≤ 5.01 nM | ≤ 5.01 nM | 5.01 to 50.1 nM | ≤ 5.01 nM | kkkk (ratio≥200)
4 | COc1cc2c(cc1-n1nc(C(=O)NCCN3CCC(CC(=O)OCC(C)(C)O)CC3)c3cnc(-c4cnn5cccnc45)cc31)OCCN2 [Example 48, 2-hydroxy-2-methylpropyl 2-(1-(2-(1-(6-methoxy-3,4-dihydro-2H-benzo[b][1,4]oxazin-7-yl)-6-(pyrazolo[1,5-a]pyrimidin-3-yl)-1H-pyrazolo[4,3-c]pyridine-3-carboxamido)ethyl)piperidin-4-yl)acetate] | ≤ 5.01 nM | ≤ 5.01 nM | ≤ 5.01 nM | 5.01 to 50.1 nM | 5.01 to 50.1 nM | kkkk (ratio≥200)
5 | COc1cc2c(cc1-n1nc(C(=O)NCCN3CCC(C(=O)OC4CCN(C)CC4)CC3)c3cnc(-c4cnn5cccnc45)cc31)OCCN2 [Example 42, 1-methylpiperidin-4-yl 1-(2-(1-(6-methoxy-3,4-dihydro-2H-benzo[b][1,4]oxazin-7-yl)-6-(pyrazolo[1,5-a]pyrimidin-3-yl)-1H-pyrazolo[4,3-c]pyridine-3-carboxamido)ethyl)piperidine-4-carboxylate] | ≤ 5.01 nM | ≤ 5.01 nM | ≤ 5.01 nM | 5.01 to 50.1 nM | 5.01 to 50.1 nM | kkk (200>ratio≥100)
6 | CCOC(=O)C1(F)CCN(CCNC(=O)c2nn(-c3cc4c(cc3OC)NCCO4)c3cc(-c4cnn5cccnc45)ncc23)CC1 [Example 28, ethyl 4-fluoro-1-(2-(1-(6-methoxy-3,4-dihydro-2H-benzo[b][1,4]oxazin-7-yl)-6-(pyrazolo[1,5-a]pyrimidin-3-yl)-1H-pyrazolo[4,3-c]pyridine-3-carboxamido)ethyl)piperidine-4-carboxylate] | ≤ 5.01 nM | ≤ 5.01 nM | ≤ 5.01 nM | 5.01 to 50.1 nM | 5.01 to 50.1 nM | 
7 | COc1cc2c(cc1-n1nc(C(=O)NCCN3CCC(C(=O)OC4CCN(C)C4)CC3)c3cnc(-c4cnn5cccnc45)cc31)OCCN2 (stereo not shown) [Example 22, 1-methylpyrrolidin-3-yl 1-(2-(1-(6-methoxy-3,4-dihydro-2H-benzo[b][1,4]oxazin-7-yl)-6-(pyrazolo[1,5-a]pyrimidin-3-yl)-1H-pyrazolo[4,3-c]pyridine-3-carboxamido)ethyl)piperidine-4-carboxylate] | 5.01 to 50.1 nM | ≤ 5.01 nM | ≤ 5.01 nM | 5.01 to 50.1 nM | 5.01 to 50.1 nM | kkk (200>ratio≥100)
8 | COc1cc2c(cc1-n1nc(C(=O)NCCN3CCC(C(=O)OCC(F)(F)F)CC3)c3cnc(-c4cnn5cccnc45)cc31)OCCN2 [Example 13, 2,2,2-trifluoroethyl 1-(2-(1-(6-methoxy-3,4-dihydro-2H-benzo[b][1,4]oxazin-7-yl)-6-(pyrazolo[1,5-a]pyrimidin-3-yl)-1H-pyrazolo[4,3-c]pyridine-3-carboxamido)ethyl)piperidine-4-carboxylate] | ≤ 5.01 nM | ≤ 5.01 nM | ≤ 5.01 nM | 5.01 to 50.1 nM | ≤ 5.01 nM | kkkk (ratio≥200)
9 | CCOC(=O)C1CCN(CCOC(=O)Nc2nn(-c3cc4c(cc3OC)NCCS4)c3cc(-c4cnn5cccnc45)ncc23)CC1 [Example 4, ethyl 1-(2-(((1-(6-methoxy-3,4-dihydro-2H-benzo[b][1,4]thiazin-7-yl)-6-(pyrazolo[1,5-a]pyrimidin-3-yl)-1H-pyrazolo[4,3-c]pyridin-3-yl)carbamoyl)oxy)ethyl)piperidine-4-carboxylate] | ≤ 5.01 nM | ≤ 5.01 nM | ≤ 5.01 nM | ≤ 5.01 nM | ≤ 5.01 nM | kk (100>ratio≥10)
10 | COc1cc2c(cc1-n1nc(C(=O)NCCN3CC[C@@H](C(=O)O[C@@H]4CCN(CCF)C4)C3)c3cnc(-c4cnn5cccnc45)cc31)OCCN2 [Example 55, (R)-1-(2-fluoroethyl)pyrrolidin-3-yl (R)-1-(2-(1-(6-methoxy-3,4-dihydro-2H-benzo[b][1,4]oxazin-7-yl)-6-(pyrazolo[1,5-a]pyrimidin-3-yl)-1H-pyrazolo[4,3-c]pyridine-3-carboxamido)ethyl)pyrrolidine-3-carboxylate] | ≤ 5.01 nM | ≤ 5.01 nM | ≤ 5.01 nM | 5.01 to 50.1 nM | 5.01 to 50.1 nM | kk (100>ratio≥10)
11 | COc1cc2c(cc1-n1nc(C(=O)OCCCN(C)C)c3cnc(-c4cnn5cccnc45)cc31)SCCN2 [Example 7, 3-(dimethylamino)propyl 1-(6-methoxy-3,4-dihydro-2H-benzo[b][1,4]thiazin-7-yl)-6-(pyrazolo[1,5-a]pyrimidin-3-yl)-1H-pyrazolo[4,3-c]pyridine-3-carboxylate] | ≤ 5.01 nM | ≤ 5.01 nM | ≤ 5.01 nM | ≤ 5.01 nM | ≤ 5.01 nM | 
12 | CCOC(=O)[C@H]1CCN(CCNC(=O)c2nn(-c3cc4c(cc3OC)NCCO4)c3cc(-c4cnn5cccnc45)ncc23)C1 [Example 44, ethyl (S)-1-(2-(1-(6-methoxy-3,4-dihydro-2H-benzo[b][1,4]oxazin-7-yl)-6-(pyrazolo[1,5-a]pyrimidin-3-yl)-1H-pyrazolo[4,3-c]pyridine-3-carboxamido)ethyl)pyrrolidine-3-carboxylate] | ≤ 5.01 nM | ≤ 5.01 nM | ≤ 5.01 nM | 5.01 to 50.1 nM | 5.01 to 50.1 nM | kkkk (ratio≥200)
